pKd: −log10 of the molar value. Like-named read-outs stand apart in the source and are kept apart here. *1 amine or outer side, *2 acyl side, *3 side chain or, on linkers, in order; H or OH if unused. Where a SMILES comes first, the peptide text is derived from it. Bridges are numbered along the chain shown (N, C = ends). [ ]: non-standard residue; d: D form. The star is where a group is joined. hPhe(3-Cl-4-CF3) = N[C@@H](CCc1ccc(C(F)(F)F)c(Cl)c1)C(=O)O; X38 = C#CCN([C@@H](Cc1ccc(C(F)(F)F)cc1)C(=O)[*:2])[*:1]; NPrPhe(4-CF3) = CCCN[C@@H](Cc1ccc(C(F)(F)F)cc1)C(=O)O; NMeGly(cPent) = CN[C@H](C(=O)O)C1CCCC1; Pro(4,4-F2) = O=C(O)[C@@H]1CC(F)(F)CN1; Gly(cPent) = N[C@H](C(=O)O)C1CCCC1; NMeD = CN[C@@H](CC(=O)O)C(=O)O; NMeL = CN[C@@H](CC(C)C)C(=O)O; NMeNva = CCC[C@H](NC)C(=O)O; Morpholide = C1CN(*)CCO1; NMeA = CN[C@@H](C)C(=O)O; Ac5c = NC1(C(=O)O)CCCC1; Aze = O=C(O)[C@@H]1CCN1; Ac4c = NC1(C(=O)O)CCC1; NEtG = CCNCC(=O)O; Sar = CNCC(=O)O
Columns and labels:
[1] = target: GDP-bound KRAS wild-type protein (Homo sapiens, UniProt P01116); experiment: Binding to KRAS by surface plasmon resonance (SPR), Single Cycle Kinetics; conditions: GDP-bound KRAS wild-type protein, read-out: KRAS KD
[2] = target: GDP-bound NRAS wild-type protein (Homo sapiens, UniProt P01111); experiment: Binding to NRAS by surface plasmon resonance (SPR), Single Cycle Kinetics; conditions: for NRAS/KRAS (ratio of KD value for NRAS to KD value for KRAS) / NRAS/KRAS (ratio of KD value with respect to NRAS to KD value with respect to KRAS): SPR, GDP-bound NRAS wild-type protein vs GDP-bound KRAS wild-type protein; for NRAS/KRAS (ratio of KD value with respect to GDP-bound NRAS wild-type protein to KD value with respect to KRAS): SPR KD ratio NRAS/KRAS, class symbols
[3] = target: GDP-bound HRAS wild-type protein (Homo sapiens, UniProt P01112); experiment: Binding to HRAS by surface plasmon resonance (SPR), Single Cycle Kinetics; conditions: for HRAS/KRAS (ratio of KD value for HRAS to KD value for KRAS) / HRAS/KRAS (ratio of KD value with respect to HRAS to KD value with respect to KRAS): SPR, GDP-bound HRAS wild-type protein vs GDP-bound KRAS wild-type protein; for HRAS/KRAS (ratio of KD value with respect to GDP-bound HRAS wild-type protein to KD value with respect to KRAS): SPR KD ratio HRAS/KRAS, class symbols
[4] = SPR Single Cycle Kinetics, 1:1 binding model

Sequence of GDP-bound KRAS wild-type protein (P01116 whole entry): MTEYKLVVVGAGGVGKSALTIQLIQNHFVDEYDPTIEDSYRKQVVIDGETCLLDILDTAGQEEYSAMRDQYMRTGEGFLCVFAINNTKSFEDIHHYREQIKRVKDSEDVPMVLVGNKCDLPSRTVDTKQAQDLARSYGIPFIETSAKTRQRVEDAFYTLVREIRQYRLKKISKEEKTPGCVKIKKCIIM
Sequence of GDP-bound NRAS wild-type protein (P01111 whole entry): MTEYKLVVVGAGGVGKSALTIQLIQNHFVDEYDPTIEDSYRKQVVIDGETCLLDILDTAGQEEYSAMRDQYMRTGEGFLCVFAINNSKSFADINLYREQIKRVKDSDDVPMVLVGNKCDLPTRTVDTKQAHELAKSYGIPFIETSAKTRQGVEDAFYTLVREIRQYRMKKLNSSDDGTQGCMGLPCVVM
Sequence of GDP-bound HRAS wild-type protein (P01112 whole entry): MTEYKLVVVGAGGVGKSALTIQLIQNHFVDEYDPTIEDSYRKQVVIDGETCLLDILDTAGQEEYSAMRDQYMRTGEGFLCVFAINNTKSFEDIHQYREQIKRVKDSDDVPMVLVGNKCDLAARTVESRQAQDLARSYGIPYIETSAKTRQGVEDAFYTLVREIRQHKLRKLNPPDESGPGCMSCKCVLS

SMILES	pKd [1, 4]	NRAS/KRAS (ratio of KD value for NRAS to KD value for KRAS) [2]	HRAS/KRAS (ratio of KD value for HRAS to KD value for KRAS) [3]	also measured
CC[C@H](C)[C@@H]1NC(=O)[C@H](CC2CC2)N(C)C(=O)C[C@@H](C(=O)N(C)C)N(C)C(=O)[C@H](C2CCCC2)N(C)C(=O)C2(CCC2)NC(=O)[C@@H]2C[C@@H](F)CN2C(=O)[C@H](CCc2cc(F)c(C(F)(F)F)c(F)c2)NC(=O)CN(C)C(=O)[C@H](Cc2ccc(C(F)(F)F)cc2)N2CC/C=C\C[C@@H](C2=O)N(C)C(=O)CN(C)C1=O [PP1497, (2S,8S,12R,14S,20S,23S,27S,30S,36S,38Z)-20-cyclopentyl-27-(cyclopropylmethyl)-8-[2-[3,5-difluoro-4-(trifluoromethyl)phenyl]ethyl]-12-fluoro-N,N,4,19,22,26,32,35-octamethyl-30-[(1S)-1-methylpropyl]-3,6,9,15,18,21,25,28,31,34,42-undecaoxo-2-[[4-(trifluoromethyl)phenyl]methyl]spiro[1,4,7,10,16,19,22,26,29,32,35-undecazatricyclo[34.5.1.0^10,14]dotetracont-38-ene-17,1′-cyclobutane]-23-carboxamide]	–	–	–	pKd ([1]; SPR, Single Cycle Kinetics, 1:1 binding model): 10.66; NRAS/KRAS (ratio of KD value for NRAS to KD value for KRAS) ([2]; KD ratio class): A (a compound having 10 or more and less than 20 is denoted as A); HRAS/KRAS (ratio of KD value for HRAS to KD value for KRAS) ([3]; KD ratio class): A (a compound having 10 or more and less than 20 is denoted as A)
CC[C@H](C)[C@@H]1NC(=O)[C@H](CC(C)C)N(C)C(=O)C[C@@H](C(=O)N2CCOCC2)N(C)C(=O)[C@H](C2CCCC2)N(C)C(=O)C2(COC2)NC(=O)[C@@H]2CCCN2C(=O)[C@H](CCc2cc(F)c(C(F)(F)F)c(F)c2)NC(=O)CN(C)C(=O)[C@H](Cc2ccc(C(F)(F)F)cc2)N2CCCC[C@@H](C2=O)N(C)C(=O)CN(C)C1=O [PP0563]	10.00	–	–	NRAS/KRAS (ratio of KD value with respect to NRAS to KD value with respect to KRAS) [2]: B (a compound having 3 or more and less than 10 is denoted as B); HRAS/KRAS (ratio of KD value with respect to HRAS to KD value with respect to KRAS) [3]: B (a compound having 3 or more and less than 10 is denoted as B)
CCCN1C(=O)[C@@H]2CCN2C(=O)CN(C)C(=O)[C@H]([C@@H](C)CC)NC(=O)[C@H](CC(C)C)N(C)C(=O)C[C@@H](C(=O)N(C)C)NC(=O)[C@H](C2CCCC2)N(C)C(=O)C2(CCC2)NC(=O)[C@@H]2CCCN2C(=O)[C@H](CCc2ccc(C(F)(F)F)c(Cl)c2)NC(=O)CN(C)C(=O)[C@@H]1Cc1ccc(C(F)(F)F)cc1 [PP0386] ([NMeL]I[Sar][Aze][NPrPhe(4-CF3)][Sar][hPhe(3-Cl-4-CF3)]P[Ac4c][NMeGly(cPent)]D-NMe2; lactam N-11)	9.16	C (A compound having a KD ratio of 0.1 or more and less than 3 is denoted as C)	B (a compound having 3 or more and less than 10 is denoted as B)	–
CCO[C@@H]1C[C@H]2C(=O)NC3(CCC3)C(=O)N(C)[C@@H](C3CCCC3)C(=O)N(C)[C@H](C(=O)N(C)C)CC(=O)N(C)[C@@H](C)C(=O)N[C@@H]([C@@H](C)CC)C(=O)N(C)CC(=O)N(C)[C@H]3CCCCN(C3=O)[C@@H](Cc3ccc(C(F)(F)F)cc3)C(=O)N(C)CC(=O)N[C@@H](CCc3cc(F)c(C(F)(F)F)c(F)c3)C(=O)N2C1 [PP0587]	10.85	–	–	NRAS/KRAS (ratio of KD value with respect to NRAS to KD value with respect to KRAS) [2]: C (A compound having a KD ratio of 0.1 or more and less than 3 is denoted as C); HRAS/KRAS (ratio of KD value with respect to HRAS to KD value with respect to KRAS) [3]: C (A compound having a KD ratio of 0.1 or more and less than 3 is denoted as C)
CCO[C@@H]1C[C@H]2C(=O)NC3(CCC3)C(=O)N(C)[C@@H](C3CCCC3)C(=O)N(C)[C@H](C(=O)N(C)C)CC(=O)N(C)[C@@H](CC)C(=O)N[C@@H]([C@@H](C)CC)C(=O)N(C)CC(=O)N(C)[C@H]3CC=C(C)CN(C3=O)[C@@H](Cc3ccc(C(F)(F)F)cc3)C(=O)N(C)CC(=O)N[C@@H](CCc3cc(F)c(C(F)(F)F)c(F)c3)C(=O)N2C1 [PP0827]	–	C (A compound having a KD ratio of 0.1 or more and less than 3 is denoted as C)	C (A compound having a KD ratio of 0.1 or more and less than 3 is denoted as C)	pKd ([1]; SPR, Single Cycle Kinetics): 9.96
CC[C@H](C)[C@@H]1NC(=O)[C@H](CC(C)C)N(CC)C(=O)C[C@@H](C(=O)N2CCOCC2)N(C)C(=O)[C@H](C2CCCC2)N(C)C(=O)C2(CCCC2)NC(=O)[C@@H]2CCCN2C(=O)[C@H](CCc2cc(F)c(C(F)(F)F)c(F)c2)NC(=O)CN(C)C(=O)[C@H](Cc2ccc(C(F)(F)F)cc2)N2CCCC[C@@H](C2=O)N(C)C(=O)CN(C)C1=O [PP0588]	9.96	–	–	NRAS/KRAS (ratio of KD value with respect to NRAS to KD value with respect to KRAS) [2]: B (a compound having 3 or more and less than 10 is denoted as B); HRAS/KRAS (ratio of KD value with respect to HRAS to KD value with respect to KRAS) [3]: B (a compound having 3 or more and less than 10 is denoted as B)
CCC[C@H]1C(=O)N[C@@H]([C@@H](C)CC)C(=O)N(C)CC(=O)N(C)[C@H]2C/C=C\CCN(C2=O)[C@@H](Cc2ccc(C(F)(F)F)cc2)C(=O)N(C)CC(=O)N[C@@H](CCc2ccc3sc(F)c(C)c3c2)C(=O)N2C[C@H](OCC)C[C@H]2C(=O)NC2(CC(C)(C)C2)C(=O)N(C)[C@@H](C(CC)CC)C(=O)N(C)[C@H](C(=O)N(C)C)CC(=O)N1C [PP2892]	9.55	–	–	NRAS/KRAS (ratio of KD value with respect to GDP-bound NRAS wild-type protein to KD value with respect to KRAS) [2]: A (a compound having 10 or more and less than 20 is denoted as A); HRAS/KRAS (ratio of KD value with respect to GDP-bound HRAS wild-type protein to KD value with respect to KRAS) [3]: A (a compound having 10 or more and less than 20 is denoted as A)
CCC[C@H]1C(=O)N[C@@H]([C@@H](C)CC)C(=O)N(C)[C@@H](C)C(=O)N2CC[C@H]2C(=O)N(CCC)[C@@H](Cc2ccc(C(F)(F)F)cc2)C(=O)N(C)CC(=O)N[C@@H](CCc2ccc(C(F)(F)F)c(Cl)c2)C(=O)N2CC(F)(F)C[C@H]2C(=O)NC2(CCCC2)C(=O)N(C)[C@@H](C2CCCC2)C(=O)N(C)[C@H](C(=O)N2CCOCC2)CC(=O)N1C [PP0205] ([NMeNva]I[NMeA][Aze][NPrPhe(4-CF3)][Sar][hPhe(3-Cl-4-CF3)][Pro(4,4-F2)][Ac5c][NMeGly(cPent)][NMeD]-Morpholide; lactam N-11)	9.96	C (A compound having a KD ratio of 0.1 or more and less than 3 is denoted as C)	C (A compound having a KD ratio of 0.1 or more and less than 3 is denoted as C)	–
CCCN1C(=O)CN(C)C(=O)CN(CC)C(=O)[C@H](C2CCCC2)NC(=O)[C@H](CC(C)C)N(C)C(=O)C[C@@H](C(=O)N2CCOCC2)N(C)C(=O)[C@H](C2CCCC2)N(C)C(=O)C2(CCCC2)NC(=O)[C@@H]2CCCN2C(=O)[C@H](CCc2ccc(C(F)(F)F)c(Cl)c2)NC(=O)CN(C)C(=O)[C@@H]1Cc1ccc(C(F)(F)F)cc1 [PP0293] ([NMeL][Gly(cPent)][NEtG][Sar][NPrPhe(4-CF3)][Sar][hPhe(3-Cl-4-CF3)]P[Ac5c][NMeGly(cPent)][NMeD]-Morpholide; lactam N-11)	9.08	B (a compound having 3 or more and less than 10 is denoted as B)	C (A compound having a KD ratio of 0.1 or more and less than 3 is denoted as C)	–
CCOC[C@H]1C(=O)N[C@@H]([C@@H](C)CC)C(=O)N(C)CC(=O)N(C)[C@H]2C/C=C\CCN(C2=O)[C@@H](Cc2ccc(C(F)(F)F)cc2)C(=O)N(C)CC(=O)N[C@@H](CCc2cc(F)c(C(F)(F)F)c(F)c2)C(=O)N2C[C@@H](C)C[C@H]2C(=O)NC2(CC(C)(C)C2)C(=O)N(C)[C@@H](C2CCCC2)C(=O)N(C)[C@H](C(=O)N(C)CC)CC(=O)N1C [PP2042]	–	A (a compound having 10 or more and less than 20 is denoted as A)	A (a compound having 10 or more and less than 20 is denoted as A)	pKd ([1]; SPR, Single Cycle Kinetics): 9.85
CCO[C@@H]1C[C@H]2C(=O)NC3(CC(C)(C)C3)C(=O)N(C)[C@@H](C3CCCC3)C(=O)N(C)[C@H](C(=O)N3CCCC3)CC(=O)N(C)[C@H]3CCC/C=C/c4ccc(cc4)C[C@@H](C(=O)N(C)CC(=O)N[C@@H](CCc4cc(F)c(C(F)(F)F)c(F)c4)C(=O)N2C1)N1CC/C=C\C[C@@H](C1=O)N(C)C(=O)CN(C)C(=O)[C@H]([C@@H](C)CC)NC3=O [PP2574, (1S,7S,11R,13S,19S,22S,26S,29S,35S,37Z,47E)-19-cyclopentyl-7-[2-[3,5-difluoro-4-(trifluoromethyl)phenyl]ethyl]-11-ethoxy-3,3′,3′,18,21,25,31,34-octamethyl-29-[(1S)-1-methylpropyl]-22-(pyrrolidine-1-carbonyl)spiro[3,6,9,15,18,21,25,28,31,34,41-undecazapentacyclo[24.15.10.2^43,46.1^35,41.0^9,13]tetrapentaconta-37,43(53),44,46(52),47-pentaene-16,1′-cyclobutane]-2,5,8,14,17,20,24,27,30,33,54-undecone]	10.29	–	–	NRAS/KRAS (ratio of KD value with respect to GDP-bound NRAS wild-type protein to KD value with respect to KRAS) [2]: A (a compound having 10 or more and less than 20 is denoted as A); HRAS/KRAS (ratio of KD value with respect to GDP-bound HRAS wild-type protein to KD value with respect to KRAS) [3]: A (a compound having 10 or more and less than 20 is denoted as A)
C#CCN1C(=O)CN(C)C(=O)CN(C)C(=O)[C@H]([C@@H](C)CC)NC(=O)[C@H](CC(C)C)N(C)C(=O)C[C@@H](C(=O)N2CCOCC2)N(C)C(=O)[C@H](C2CCCC2)N(C)C(=O)C2(CCCC2)NC(=O)[C@@H]2CCCN2C(=O)[C@H](CCc2ccc(C(F)(F)F)c(Cl)c2)NC(=O)CN(C)C(=O)[C@@H]1Cc1ccc(C(F)(F)F)cc1 [PP0130] ([NMeL]I[Sar][Sar][X38][Sar][hPhe(3-Cl-4-CF3)]P[Ac5c][NMeGly(cPent)][NMeD]-Morpholide; lactam N-11)	9.60	C (A compound having a KD ratio of 0.1 or more and less than 3 is denoted as C)	C (A compound having a KD ratio of 0.1 or more and less than 3 is denoted as C)	–

— patent US20240158446A1, “CYCLIC COMPOUND HAVING SELECTIVE INHIBITORY ACTION ON KRAS OVER HRAS AND NRAS” (CHUGAI SEIYAKU KABUSHIKI KAISHA, priority 2021, published 2024)
